# Assay results taken from patent US20240060139A1, “TREATMENT RESPONSE SIGNATURES” (Caris MPI, Inc., priority 2020, published 2024).
# System: ovarian cancers
# Test: Kaplan Meier overall survival on platinum therapy against gene copy number at 5q1x and 3q2x (control analysis)
# Format: in vivo
# Conditions: MAP3K1, IL6ST, PIK3R1 copy number; FIGS. 3F-H
# Text: We then asked whether loss of the PARP15 and PARP8 would also correlate with response or lack of response to PARPi therapy. For this analysis we looked at DNA copy number determined using next-generation sequencing of a panel of 592 genes. See Example 1. […] Without being bound by theory, loss at a one gene is highly correlated with loss of neighboring genes. As a control, we repeated the analysis shown in FIGS. 3C-E but used response to platinum compounds instead of PARPi, specifically carboplatin. […] As a control, we repeated the analysis shown in FIGS. 3I-K but used response to platinum compounds instead of PARPi.
smiles,measurement,value
N.N.O=C([O-])C1(C(=O)[O-])CCC1.[Pt+2] [carboplatin],response to platinum therapy (overall survival) by gene copy number at 5q1x,loss of copy number at 5q1x was correlated of positive benefit of platinum therapy
